For assay [1], the target named is T1, human FGF-1 (flg) receptor tyrosine kinase (Homo sapiens, UniProt P11362).
T1 construct: a fragment of DNA that codes for the intracellular tyrosine kinase domain; made in house; host or cells: Sf9 insect cells (baculovirus), cell lysate
Kind of assay: FGF receptor tyrosine kinase assay. The format is biochemical. To be noted: read-out: Inhibition of Protein Tyrosine Kinases, FGF, IC50. The essentials:
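Intracellular kinase domains expressed in baculovirus-infected SF9 cells; crude lysate used as enzyme. Inhibitor preincubated 10 min at 25 °C with lysate in pH 7.0 Hepes buffer with 10 mM MnCl2 and poly(Glu-Tyr) 4:1, then γ-32P-ATP (50 μM ATP) added for 10 min at 25 °C. TCA-precipitated 32P on filters counted, no-enzyme background subtracted.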

The test system of assay [2] is V-src kinase. As to the kind of experiment: V-src kinase assay. It counts as biochemical. To be noted: at 50 μM. An outline of the steps: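 Baculovirus-expressed v-src or c-src, immunopurified on antibody-coated latex beads, phosphorylated poly GluTyr with 5 μM ATP including [32P]-ATP in Tris pH 7.5/MgCl2. Reaction ran 10 min at room temperature, TCA/pyrophosphate quench, then filtered. Incorporated label counted by liquid scintillation and compared with solvent control.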

Assay [3] relates to Rat aorta smooth muscle cells (RASMC). As to the kind of experiment: [3H]-Thymidine incorporation assay in RASMC. The format is cell-based. The settings on record: read-out: Inhibition of Growth Factor Stimulated Uptake of [3H]-thymidine (IC50). As to the method:
Cell Culture Rat aorta smooth muscle cells (RASMC) were isolated from the thoracic aorta of rats and explanted according to the method of Ross, J. Cell. Biol., 30:172-186 (1971). Cells were grown in Dulbecco's modified Eagle's medium (DMEM, Gibco) containing 10% fetal calf serum (FBS, Hyclone, Logan, Utah), 1% glutamine (Gibco) and 1% penicillin/streptomycin (Gibco). Cells were identified as smooth muscle cells by their "hill and valley" growth pattern and by fluorescent staining with a monoclonal antibody specific for SMC […] (Sigma). RASMC were used between passages 5 and 20 for all experiments. Test compounds were prepared in dimethylsulfoxide (DMSO) in order to achieve consistency in the vehicle and to ensure compound solubility. Appropriate DMSO controls were simultaneously evaluated with the test compounds. […] RASMC were plated into a 24-well plate (30,000 cells/well) in DMEM with 10% FBS. After 4 days, cells reached confluence and were made quiescent by incubation in DMEM/F12 medium (Gibco) containing 0.2% FBS for another 2 days. […] […] The acid-insoluble fraction was lysed in 0.75 mL 0.25N NaOH and the radioactivity determined by liquid scintillation counting. IC50 values were determined graphically.
A general note: Incorporation of labelled thymidine or its analogues reports DNA synthesis.

Where two headings read alike, the source gives them in different places.

T1 sequence (P11362 478-767 limits assumed): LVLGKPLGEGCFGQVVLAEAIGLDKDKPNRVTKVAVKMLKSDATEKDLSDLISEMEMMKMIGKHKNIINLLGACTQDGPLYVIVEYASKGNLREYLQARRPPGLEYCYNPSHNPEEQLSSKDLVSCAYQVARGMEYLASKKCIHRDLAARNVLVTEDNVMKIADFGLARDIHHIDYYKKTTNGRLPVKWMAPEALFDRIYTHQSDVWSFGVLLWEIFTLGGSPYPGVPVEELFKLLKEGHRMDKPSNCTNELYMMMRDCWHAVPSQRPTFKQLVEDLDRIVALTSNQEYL

Regarding `Cc1ccccc1-c1cc2cnc(N)nc2nc1N` [Example 90, 6-o-Tolyl-pyrido[2,3-d]pyrimidine-2,7-diamine], the IC50 was 11.5 µM in assay [1], 20 µM in assay [3] (FGF stimulated) and above 10 µM in assay [3] (PDGF stimulated). The “Inhibition of Protein Tyrosine Kinases, V-src, % Inhibition” value in assay [2] is listed as 16.8%.

Usually IC50 stands for the concentration that gives 50% inhibition.

For the origin of these results see patent US5733913A, “6-Aryl pyrido[2,3-d] pyrimidines and naphthyridines for inhibiting protein tyrosine kinase mediated cellular proliferation” (priority 1995, dated 1998).
